Measured values as given in US6838253B2, “Regulation of intracellular glucocorticoid concentrations” (The University of Edinburgh, priority 1995, dated 2005).
One block for each compound: values may come before it.

Legend:
rat hippocampal cells = experiment: kainic acid neurotoxicity, hippocampal cell survival; format: cell-based; conditions: for kainic acid neurotoxicity: pretreatment with steroid alone
Text: To assess the influence of 11β-reductase activity on neurotoxicity, cells were exposed to kainic acid and cell survival determined.

[1] = euglycaemic hyperinsulinaemic clamp study with forearm glucose uptake in healthy male volunteers; format: in vivo, human
Method: Seven non-obese (Body Mass Index <25) healthy male Caucasian volunteers on no medication, aged 27-36 years, were given carbenoxolone (100 mg every 8 hours orally) or matched placebo for seven days in a randomised double-blind cross-over design, with phases separated by at least 4 weeks. On the seventh day of each phase euglycaemic hyperinsulinaemic clamp studies with measurement of forearm glucose uptake were performed, as described in detail in reference 16, the content of which is incorporated herein by reference.

adipocytes = conditions: higher concentrations (mmol/l), without corticosteroid, reference 37; cited from earlier work
11β-reductase activity = target: T1, 11β-reductase activity (Rattus norvegicus, UniProt P16232); experiment: 11β-reductase activity in whole primary fetal hippocampal cells in culture; format: cell-based; conditions: 10^−6M
T1 construct: endogenous in cells; host or cells: primary cultures of fetal rat hippocampal cells
Text: Hippocampi were dissected from Wistar rat embryos on day 18.5 of pregnancy and cultured in DMEM with supplements, as described. These cells expressed 11β-HSD1 mRNA, and homogenised cells performed either 11β-dehydrogenase or 11β-reductase activity.

[2] = target: T2, hepatic 11β-reductase activity (Homo sapiens, UniProt P28845); experiment: conversion of oral cortisone to cortisol on first pass as index of 11β-reductase activity in vivo in man
T2 construct: from tissue; host or cells: liver of human volunteers, in vivo
Text: Consistent with the observations in animal tissues and cultured cells described above, we have established the relative activities of 11β-dehydrogenase and 11β-reductase in vivo in different organs in man by measuring the cortisol/cortisone ratio in plasma from selective venous catheterisations. In most organs the venous effluent contains cortisol and cortisone in a ratio of ˜10:1. However, in renal vein plasma the ratio is 3:1, while in hepatic vein plasma the ratio is 55:1, consistent with potent 11β-dehydrogenase activity due to 11β-HSD2 expression in the kidney and potent 11β-reductase 11β-HSD1 activity in the liver. Moreover, cortisone taken orally, and therefore delivered to the liver via the portal vein, is avidly converted on first pass to cortisol in the peripheral circulation. Using this index of 11β-reductase activity we have shown that, in addition to inhibiting renal 11β-dehydrogenase activity, carbenoxolone (but not glycyrrhetinic acid) inhibits hepatic 11β-reductase activity in vivo in man.

[3] = test system: corticosteroids receptors; conditions: reference 36; cited from earlier work
[4] = fasting plasma glucose in rats after 14 days of subcutaneous treatment; format: in vivo, rat; conditions: 1, 3 or 10 mg daily s.c., male Wistar Hans rats
Method: Intact male Wistar Hans rats of body weight 200-250 g were treated with daily subcutaneous injection of 1 ml of either 0.9% saline (vehicle) or carbenoxolone (made up to 1, 3, or 10 mg/ml in 0.9% saline) for 14 days. They were fasted from 4 pm and blood obtained by tail-nick at 9 am the next day. Plasma glucose was measured by a glucose oxidase method on a Beckman CX-3 autoanalyser.

5β-reductase = target: T3, 5β-reductase (Homo sapiens, UniProt P51857); conditions: reference 35; cited from earlier work
T3 sequence (P51857 1-326): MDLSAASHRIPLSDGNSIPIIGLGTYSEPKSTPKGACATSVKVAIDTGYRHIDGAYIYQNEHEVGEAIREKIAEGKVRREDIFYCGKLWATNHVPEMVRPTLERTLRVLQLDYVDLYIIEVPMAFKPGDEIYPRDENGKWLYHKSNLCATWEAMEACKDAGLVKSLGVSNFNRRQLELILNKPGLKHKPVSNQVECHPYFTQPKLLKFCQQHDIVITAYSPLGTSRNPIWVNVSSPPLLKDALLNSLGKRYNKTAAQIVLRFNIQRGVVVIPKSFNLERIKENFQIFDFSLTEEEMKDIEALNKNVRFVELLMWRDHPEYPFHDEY

11β-HSD = 11β-HSD activity in tissue homogenates of treated gonadectomised rats; format: in vivo, rat
Text: (§1) Male Han Wistar rats (200-250 g) underwent gonadectomy and either bilateral adrenalectomy or sham-operation under halothane anaesthesia. For estradiol administration, silicone elastomer capsules (1.95 mm internal diameter, 3.125 mm external diameter) (Dow Corning Corporation, Midland, Mich., USA) containing 17β-estradiol (Sigma, Poole, UK) were implanted subcutaneously. For animals treated for 42 days with estradiol, the capsules were removed and replaced after 21 days. Control animals were implanted with blank capsules. Adrenalectomised rats were maintained on 0.9%. saline. Rats were killed 10, 21 or 42 days after surgery. Liver and hippocampus were removed and dissected on ice for assay of 11β-HSD activity and an aliquot of liver was frozen on dry ice and stored at −80° C. until extraction of RNA.
Tissues were homogenised in Krebs-Ringer bicarbonate buffer with 0.2% glucose, pH 7.4, and assayed as described previously. Homogenates (6.25 μg of liver protein, 250 μg of hippocampal protein) were incubated with 200 μM NADP (Sigma, Poole, UK) and 12 nM [^3H]-corticosterone (specific activity 84 Ci/mmol; Amersham International, Aylesbury, UK) in a total volume of 250 μl with […] 11β-dehydrogenase activity was quantified in this assay as a measure of active enzyme since 11β-reductase is unstable in homogenates. Steroids were extracted with ethyl acetate and separated by HPLC with on-line β courtier. 11β-HSD activity was expressed as conversion of corticosterone to 11-dehydrocorticosterone, after correction for apparent conversion in incubates without enzyme (<3%).

11β-HSD1 mRNA = experiment: northern analysis of hepatic 11β-HSD1 mRNA in treated rats; format: in vivo, rat
Text: as §1
Total RNA was extracted from liver tissue by the guanidinium thiocyanate method, as described and resuspended in diethylpyrocarbonate-treated water. RNA concentration and purity was assayed spectrophotometrically. 20 μg aliquots were separated on a 1.2% agarose gel containing 2% formaldehyde. […] Optical density was determined using a computer-driven image analysis system (Seescan plc, Cambs, UK). Values were expressed as a percentage of control levels.

PEPCK mRNA = experiment: northern analysis of hepatic PEPCK mRNA in treated rats; format: in vivo, rat
Text: as §1
Total RNA was extracted from liver tissue by the guanidinium thiocyanate method, as described and resuspended in diethylpyrocarbonate-treated water. RNA concentration and purity was assayed spectrophotometrically. 20 μg aliquots were separated on a 1.2% agarose gel containing 2% formaldehyde. RNA was blotted onto nitrocellulose membranes (Hybond-N, Amersham International, UK), prehybridized in 6 ml phosphate buffer (0.2 M NaH2PO4, 0.6 M NaH2PO4, 5 mM EDTA), 3 ml 20% SDS and 100 μg denatured herring testis DNA (Sigma, Poole, UK) for 2 h at 55° C. and hybridized at 55° C. overnight in the same solution containing rat 11β-HSD1 or PEPCK cDNA, labelled with ^32P-dCTP using a random primed DNA labelling kit (Boehringer Mannheim UK Ltd., Lewes, UK). Three 20 min washes were carried out at room temperature in 1×SSC (0.3 M NaCl, 0.03 M sodium citrate), 0.1% SDS followed by a stringent wash at 55° C. for 30 min in 0.3×SSC, 0.1% SDS. Filters were exposed to autoradiographic film for 1-4 days (adjusted to ensure the signal density was within the linear range). […] Optical density was determined using a computer-driven image analysis system (Seescan plc, Cambs, UK). Values were expressed as a percentage of control levels.

glucocorticoid receptors = target: T4, glucocorticoid receptors (Homo sapiens, UniProt P04150); conditions: reference 29; cited from earlier work
T4 sequence (P04150 1-777): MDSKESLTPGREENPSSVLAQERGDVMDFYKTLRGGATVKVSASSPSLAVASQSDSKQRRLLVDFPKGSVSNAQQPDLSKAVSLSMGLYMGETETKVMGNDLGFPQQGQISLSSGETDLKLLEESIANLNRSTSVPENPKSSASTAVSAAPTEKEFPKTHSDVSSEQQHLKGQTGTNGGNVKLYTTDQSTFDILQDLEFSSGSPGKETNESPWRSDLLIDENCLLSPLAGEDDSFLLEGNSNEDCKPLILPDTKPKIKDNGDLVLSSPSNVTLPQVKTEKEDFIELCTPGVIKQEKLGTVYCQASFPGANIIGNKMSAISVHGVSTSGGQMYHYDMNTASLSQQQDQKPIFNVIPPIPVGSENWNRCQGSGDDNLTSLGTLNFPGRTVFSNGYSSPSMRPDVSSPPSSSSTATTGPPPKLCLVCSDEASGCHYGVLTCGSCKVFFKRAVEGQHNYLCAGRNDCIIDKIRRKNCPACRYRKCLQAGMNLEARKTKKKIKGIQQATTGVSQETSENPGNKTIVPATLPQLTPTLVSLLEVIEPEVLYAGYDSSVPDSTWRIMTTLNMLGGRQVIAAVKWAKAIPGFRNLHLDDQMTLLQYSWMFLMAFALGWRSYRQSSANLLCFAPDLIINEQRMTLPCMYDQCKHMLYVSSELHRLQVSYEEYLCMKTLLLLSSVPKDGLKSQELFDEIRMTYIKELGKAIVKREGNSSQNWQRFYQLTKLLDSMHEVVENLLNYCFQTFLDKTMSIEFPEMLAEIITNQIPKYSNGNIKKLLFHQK

[5] = thymic involution in mice; format: in vivo, mouse; conditions: wild-type control mice; homozygous mutant mice resistant
Text: Homozygotes for the mutant allele are morphologically intact and fully fertile. No survival bias is conferred by the mutant allele. However, neither 11β-HSD1 mRNA nor enzyme activity (techniques as above) were detected in mutant homozygotes, and reduced mRNA and activity were detected in heterozygotes.

[6] = 100 mg every 8 hours orally, seven days
[7] = 100 mg every 8 hours orally, seven days, healthy men

T2 sequence (P28845 whole entry): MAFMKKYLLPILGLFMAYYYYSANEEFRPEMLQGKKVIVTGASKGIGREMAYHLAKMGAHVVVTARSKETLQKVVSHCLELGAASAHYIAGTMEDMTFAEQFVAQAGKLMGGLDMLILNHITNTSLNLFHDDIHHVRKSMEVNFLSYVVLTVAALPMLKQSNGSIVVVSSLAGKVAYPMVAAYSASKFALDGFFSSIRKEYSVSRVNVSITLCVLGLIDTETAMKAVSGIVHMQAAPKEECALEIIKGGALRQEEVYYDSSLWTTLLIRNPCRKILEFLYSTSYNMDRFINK
T1 sequence (P16232 whole entry): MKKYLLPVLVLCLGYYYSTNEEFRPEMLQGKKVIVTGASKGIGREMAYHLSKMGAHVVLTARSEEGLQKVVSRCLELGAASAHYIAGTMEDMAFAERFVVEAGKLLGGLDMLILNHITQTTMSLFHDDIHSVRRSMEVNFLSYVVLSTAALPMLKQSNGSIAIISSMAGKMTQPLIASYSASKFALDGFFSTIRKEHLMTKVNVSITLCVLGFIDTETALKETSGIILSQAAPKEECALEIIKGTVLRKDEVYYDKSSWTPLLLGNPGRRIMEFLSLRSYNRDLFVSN

forearm blood flow [1, 6]: not elevated | plasma renin, aldosterone, and potassium concentrations ([1]; consequent on renal effects): suppressed | 11β-reductase activity in whole hippocampal cells (11β-reductase activity): almost abolished | effect on 11β-reductase in vivo [2]: inhibits | hepatic 11β-reductase activity in vivo in man ([2]; oral cortisone converted to cortisol, man): inhibits
Structure (SMILES): CC1(C)[C@@H](OC(=O)CCC(=O)O)CC[C@]2(C)[C@H]3C(=O)C=C4[C@@H]5C[C@@](C)(C(=O)O)CC[C@]5(C)CC[C@@]4(C)[C@]3(C)CC[C@@H]12 [carbenoxolone, 3β-(3-carboxypropionyloxy)-11-oxo-olean-2-en 30-oic acid]
potentiating effect of 11-dehydrocorticosterone on kainic acid neurotoxicity (rat hippocampal cells; with 11-dehydrocorticosterone): protected the cells | effect of corticosterone on kainic acid neurotoxicity (rat hippocampal cells; with corticosterone): did not alter | blood pressure [1, 6]: not elevated | fasting glucose concentration [1, 7]: no change | fasting insulin concentration [1, 7]: fall | peripheral glucose uptake as measured by forearm glucose uptake ([1]; euglycaemic clamp, day 7, versus placebo): No difference was detected | action of insulin in adipocytes (adipocytes): antagonises | affinity for corticosteroids receptors in vitro [3]: low affinity | fasting glucose concentrations [4]: dose-dependent fall | 5β-reductase inhibition (5β-reductase): inhibits

effect on 11β-reductase in vivo [2]: no effect
Structure (SMILES): CC1(C)[C@@H](O)CC[C@]2(C)[C@H]3C(=O)C=C4[C@@H]5C[C@@](C)(C(=O)O)CC[C@]5(C)CC[C@@]4(C)[C@]3(C)CC[C@@H]12 [glycyrrhetinic acid]

Structure (SMILES): C[C@]12CC[C@@H]3c4ccc(O)cc4CC[C@H]3[C@@H]1CC[C@@H]2O [estradiol, 17β-estradiol]
hepatic 11β-HSD activity (11β-HSD; 10, 21 and 42 days, gonadectomised male rats): marked decreases | 11β-HSD activity in the hippocampus (11β-HSD; 21 or 42 days): not altered | conversion of corticosterone to 11-dehydrocorticosterone in liver homogenates (11β-HSD; 42 days of treatment, prolonged (60 min) incubation): 12.2±14.7% | liver 11β-HSD1 activity in adrenalectomised rats (11β-HSD; adrenalectomised, 21 days): reduced | liver 11β-HSD1 mRNA in adrenalectomised rats (11β-HSD1 mRNA; adrenalectomised, 21 days): reduced | hepatic 11β-HSD1 mRNA expression (11β-HSD1 mRNA; after 21 and 42 days, gonadectomised male rats): undetectable levels | PEPCK mRNA levels in adrenalectomised rats (PEPCK mRNA; adrenalectomised, 21 days, compared with adrenalectomy alone): increased | hepatic PEPCK gene expression (PEPCK mRNA; after 21 days, adrenally intact): decreased | PEPCK mRNA expression (PEPCK mRNA; after 42 days): significantly reduced

Structure (SMILES): C[C@]12CCC(=O)C=C1CC[C@@H]1[C@@H]2[C@@H](O)C[C@@]2(C)[C@H]1CC[C@]2(O)C(=O)CO [cortisol]
affinity of glucocorticoid receptors relative to mineralocorticoid receptors (glucocorticoid receptors): 10-40 times lower

Structure (SMILES): C[C@]12C[C@H](O)[C@H]3[C@@H](CCC4=CC(=O)CC[C@@]43C)[C@@H]1CC[C@@H]2C(=O)CO [corticosterone]
kainic acid neurotoxicity (rat hippocampal cells): potentiated

Structure (SMILES): C[C@]12CC(=O)[C@H]3[C@@H](CCC4=CC(=O)CC[C@@]43C)[C@@H]1CC[C@@H]2C(=O)CO [11-dehydrocorticosterone]
kainic acid neurotoxicity (rat hippocampal cells): potentiated | thymic involution [5]: thymic involution seen
